Test results: patent publication US20120283334A1, “Treatment of Viral Infections” (Biocopea, Ltd., priority 2009, published 2012)

System: influenza (A/PR/8/34), H1N1 virus
Assay: In vivo mouse influenza challenge, bupropion metabolite by oral gavage
Details: H1N1-infected mice
Excerpt: 6) In Vivo Mouse Studies Using Bupropion Metabolite
The bupropion metabolite known as 2-(1,1-dimethylethyl)amino-1-(3-chlorophenyl)propan-1-ol (BC1053), in 10% ethanol, was delivered orally to influenza infected mice, as follows.
Two groups of n=12 C57BLK/6 barrier reared female mice (6-8 weeks old, and between 15-18 g in weight) were intranasally challenged with a lethal dose of influenza (A/PR/8/34). On day 3 post-challenge, the animals received the following treatments: group A received an oral gavage of 100 μl of 10% Ethanol in water; and group B received an oral gavage of 100 μl containing 540 μg of bupropion metabolite in 10% Ethanol in water.
The animals were weighed and monitored daily for morbidity and mortality up to day 6, when all animals were culled. Average weight loss per group and survival were calculated.
As described above, mice were infected with a H1N1 virus which was allowed to become established in each of the subjects. Each test mouse was then treated with 2-(1,1-dimethylethyl)amino-1-(3-chlorophenyl)propan-1-ol (i.e. a bupropion metabolite, BC1053) with a single dose on day 3 after infection with the virus. In the control mice, no metabolite was administered. The weight loss of both treated and untreated mice was then determined.

Question: Which “lower reduction in weight loss than the control mice” value (single oral dose 540 μg on day 3, FIG. 4) does the source give for `CC(NC(C)(C)C)C(O)c1cccc(Cl)c1` (centres unmarked) [BC1053, 2-(1,1-dimethylethyl)amino-1-(3-chlorophenyl)propan-1-ol] here?
Answer: Its value is ≥ 30%.

Question: And the “higher survival rate than the control, untreated mice” value (single oral dose 540 μg on day 3, FIG. 5)?
Answer: Its value is “about 30%”.
